Series [1] concerns Male Sprague-Dawley rats. The experiment in a line: Open-field locomotor activity in rats. The settings on record: for sedative or hypnotic effects (locomotor activity): compared with diazepam or triazolam; for Antianxiety/sedation: ratio of lowest effective anxiolytic dose (situational anxiety) and lowest effective dose producing side effects in locomotor activity, PO. How it is done:
Open-Field Locomotor Activity in Rats
Male Sprague-Dawley rats, weighing 250-290 grams at the beginning of the experiment were purchased from Charles River Laboratories (Wilmington, Mass.). The animals were housed in groups of four in a colony room maintained at constant temperature (21±2° C.) and humidity (50±10%). The room was illuminated 12 hours per day (lights on at 0600 h). The rats had ad libitum access to food and water. The testing apparatus consisted of Plexiglas chambers (42×42×30 cm) equipped with Digiscan activity monitors (Omnitech Electronics, Columbus, Ohio) that detect interruptions of 16 photobeams spaced 2.5 cm apart and 2.5 cm above the floor. Horizontal activity was monitored for 60 minutes.
(§1) Drug Administration: All drugs were administered PO 20-60 minutes before behavioral testing.
(§2) Data Analysis: Results were expressed as the mean±1 SEM. All data were subjected to analysis of variance (ANOVA) followed by individual mean comparisons using Fisher's Least Significant Difference Test (Kirk, 1968) where appropriate. The significance level was set at p<0.05.
Rats were placed in an open field and the total distance covered by the rat was measured. The test duration was 60 minutes. Compounds producing sedative effects decrease the distance covered.

For series [2], the system named is Male Sprague-Dawley rats. The experiment in a line: Rotorod performance in rats. The following applies: for ataxia (rotorod): compared with diazepam or triazolam; for Antianxiety/ataxia: ratio of lowest effective anxiolytic dose (situational anxiety) and lowest effective dose producing side effects in rotorod, PO. How it is done:
Rotorod Performance in Rats
Male Sprague-Dawley rats, weighing 180-200 grams at the beginning of the experiment were purchased from Charles River Laboratories (Wilmington, Mass.). The animals were housed in groups of four in a colony room maintained at constant temperature (21±2° C.) and humidity (50±10%). The room was illuminated 12 hours per day (lights on at 0600 h). The rats had ad libitum access to food and water. The degree of muscle coordination or balance (i.e., ataxia) was determined using a standard accelerating rotorod treadmill (Ugo Basile, Comerio-Varese, Italy or Columbus Instruments, Columbus, Ohio) that was 6 cm in diameter, 24 cm above the base, and run from an initial speed of 2 rpm to a maximum speed of 20 rpm. The time each animal remained on the rotating rod was automatically recorded, up to a maximum of 5 minutes.
as §1, §2
The time on the rod for each rat was recorded. Compounds producing ataxia (motor incoordination) decrease the time spent on the rod compared with vehicle-treated animals.

The next series has as its system Male CF1 mice. The experiment in a line: Protection from pentylenetetrazole-induced seizures. The series is classed as in vivo, mouse. The following applies: for PTZ Seizures, effective dose: PO 60 min before pentylenetetrazole 125 mg/kg s.c.; for anticonvulsant effects against PTZ-induced seizures: PTZ 125 mg/kg. How it is done: Protection from Pentylenetetrazole-Induced Seizures
Male CF1 mice weighing 20-22 g at the time of the experiment were purchased from Charles River Laboratories (Wilmington, Mass.). Pentylenetetrazole (Sigma Chemical Co.) was administered at 125 mg/kg s.c. The number of animals surviving was recorded at 30 minutes and 60 minutes after administration of pentylenetetrazole.
Drug Administration: All drugs were administered PO 60 minutes before administration of pentyenetetrazole.
Data Analysis: The data are presented as the percent of animals protected from death. The data were analyzed by Chi Square statistics. The significance level was set at p<0.05.
Mice treated with certain compounds of the present invention were subjected to pentylenetetrazole (PTZ) at 125 mg/kg to induce seizures. The percent of animals protected from death within one hour of PTZ was measured.

Series [3] relates to Male Sprague-Dawley rats. The experiment in a line: Discriminative stimulus effects of chlordiazepoxide in rats (drug discrimination). The settings on record: for CDP-like effects (drug discrimination): compared with diazepam or triazolam; for Antianxiety/abuse liability: ratio of lowest effective anxiolytic dose (situational anxiety) and lowest effective dose producing chlordiazepoxide-like effects in drug discrimination.

The target in a further series is GABAA/α5 receptors (Homo sapiens, UniProt P18507+P31644). The following applies: cited from earlier work.
The next series concerns the target GABAA/α2 (Homo sapiens, UniProt P18507+P47869). The settings on record: cited from earlier work.
The next series has as its target GABAA/α3 (Homo sapiens, UniProt P18507+P34903). The settings on record: cited from earlier work.
The next series has as its target GABAA/α1 receptors (Homo sapiens, UniProt P14867+P18507). The following applies: cited from earlier work.

We go through five compounds from patent US7618958B2, “Stereospecific anxiolytic and anticonvulsant agents with reduced muscle-relaxant, sedative-hypnotic and ataxic effects” (WISYS Technology Foundation, Inc., priority 2004, dated 2009).

GABAA/α3, sequence (P34903 29-492): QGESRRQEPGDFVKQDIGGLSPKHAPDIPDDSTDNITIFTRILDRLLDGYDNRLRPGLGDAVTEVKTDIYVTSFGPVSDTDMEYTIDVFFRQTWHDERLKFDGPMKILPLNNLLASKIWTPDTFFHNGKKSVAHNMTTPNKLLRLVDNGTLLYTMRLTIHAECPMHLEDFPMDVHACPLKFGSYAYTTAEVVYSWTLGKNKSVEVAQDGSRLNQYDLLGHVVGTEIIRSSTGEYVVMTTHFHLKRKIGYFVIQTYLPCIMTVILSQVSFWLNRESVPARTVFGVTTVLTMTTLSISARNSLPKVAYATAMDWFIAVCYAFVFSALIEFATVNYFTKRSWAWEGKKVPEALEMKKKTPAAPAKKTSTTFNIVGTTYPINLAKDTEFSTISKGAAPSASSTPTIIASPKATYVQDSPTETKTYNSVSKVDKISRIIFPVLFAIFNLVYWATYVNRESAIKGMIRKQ
GABAA/α3, sequence (P28472 26-473 partner): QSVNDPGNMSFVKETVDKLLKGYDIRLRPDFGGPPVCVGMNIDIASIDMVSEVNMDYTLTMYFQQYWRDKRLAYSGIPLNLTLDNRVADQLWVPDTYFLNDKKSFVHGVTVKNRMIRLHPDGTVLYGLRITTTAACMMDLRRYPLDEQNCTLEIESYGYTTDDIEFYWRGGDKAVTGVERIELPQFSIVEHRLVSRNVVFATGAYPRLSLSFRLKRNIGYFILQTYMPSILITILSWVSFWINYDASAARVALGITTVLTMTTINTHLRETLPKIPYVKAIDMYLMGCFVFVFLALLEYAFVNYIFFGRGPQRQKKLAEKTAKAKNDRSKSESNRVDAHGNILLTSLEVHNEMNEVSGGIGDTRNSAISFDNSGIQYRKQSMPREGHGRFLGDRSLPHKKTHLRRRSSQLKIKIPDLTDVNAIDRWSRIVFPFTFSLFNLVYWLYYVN
GABAA/α3, sequence (P18507 40-475): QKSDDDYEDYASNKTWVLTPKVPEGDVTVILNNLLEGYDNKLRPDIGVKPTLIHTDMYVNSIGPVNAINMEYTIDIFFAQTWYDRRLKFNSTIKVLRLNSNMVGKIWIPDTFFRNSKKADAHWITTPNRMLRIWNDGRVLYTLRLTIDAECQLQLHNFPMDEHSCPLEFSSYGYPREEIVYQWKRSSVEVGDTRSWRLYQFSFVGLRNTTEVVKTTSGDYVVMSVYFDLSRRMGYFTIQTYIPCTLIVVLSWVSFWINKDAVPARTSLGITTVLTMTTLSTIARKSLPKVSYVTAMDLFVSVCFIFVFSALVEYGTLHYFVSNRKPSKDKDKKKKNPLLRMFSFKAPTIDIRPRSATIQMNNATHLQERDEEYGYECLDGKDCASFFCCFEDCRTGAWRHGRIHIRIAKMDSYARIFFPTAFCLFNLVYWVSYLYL
GABAA/α5 receptors, sequence (P31644 32-462): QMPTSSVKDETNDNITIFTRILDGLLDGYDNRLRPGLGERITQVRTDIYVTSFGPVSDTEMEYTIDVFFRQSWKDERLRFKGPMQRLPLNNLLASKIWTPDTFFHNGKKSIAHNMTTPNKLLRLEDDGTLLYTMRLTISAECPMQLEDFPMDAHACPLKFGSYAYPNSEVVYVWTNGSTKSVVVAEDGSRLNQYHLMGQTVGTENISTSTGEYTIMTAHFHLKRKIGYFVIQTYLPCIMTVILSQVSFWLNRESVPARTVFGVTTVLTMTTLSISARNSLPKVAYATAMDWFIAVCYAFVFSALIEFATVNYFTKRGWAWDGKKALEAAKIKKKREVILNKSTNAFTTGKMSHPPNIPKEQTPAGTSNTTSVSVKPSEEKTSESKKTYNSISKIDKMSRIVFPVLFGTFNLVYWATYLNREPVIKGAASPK
GABAA/α5 receptors, sequence (P28472 26-473 partner): as the sequence (P28472 26-473 partner) above
GABAA/α5 receptors, sequence (P18507 40-475): as the sequence (P18507 40-475) above
GABAA/α2, sequence (P47869 29-451): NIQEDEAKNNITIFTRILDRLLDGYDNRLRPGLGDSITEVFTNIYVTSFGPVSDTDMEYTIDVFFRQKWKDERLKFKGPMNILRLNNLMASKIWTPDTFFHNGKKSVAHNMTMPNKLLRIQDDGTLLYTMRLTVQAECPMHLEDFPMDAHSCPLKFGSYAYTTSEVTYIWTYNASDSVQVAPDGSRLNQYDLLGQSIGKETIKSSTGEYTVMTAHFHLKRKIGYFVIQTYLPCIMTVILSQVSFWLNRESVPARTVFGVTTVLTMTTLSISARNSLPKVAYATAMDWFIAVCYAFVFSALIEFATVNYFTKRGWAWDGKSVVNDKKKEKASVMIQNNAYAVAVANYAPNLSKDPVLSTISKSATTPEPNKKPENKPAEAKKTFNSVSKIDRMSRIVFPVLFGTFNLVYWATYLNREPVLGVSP
GABAA/α2, sequence (P28472 26-473 partner): as the sequence (P28472 26-473 partner) above
GABAA/α2, sequence (P18507 40-475): as the sequence (P18507 40-475) above
GABAA/α1 receptors, sequence (P14867 28-456): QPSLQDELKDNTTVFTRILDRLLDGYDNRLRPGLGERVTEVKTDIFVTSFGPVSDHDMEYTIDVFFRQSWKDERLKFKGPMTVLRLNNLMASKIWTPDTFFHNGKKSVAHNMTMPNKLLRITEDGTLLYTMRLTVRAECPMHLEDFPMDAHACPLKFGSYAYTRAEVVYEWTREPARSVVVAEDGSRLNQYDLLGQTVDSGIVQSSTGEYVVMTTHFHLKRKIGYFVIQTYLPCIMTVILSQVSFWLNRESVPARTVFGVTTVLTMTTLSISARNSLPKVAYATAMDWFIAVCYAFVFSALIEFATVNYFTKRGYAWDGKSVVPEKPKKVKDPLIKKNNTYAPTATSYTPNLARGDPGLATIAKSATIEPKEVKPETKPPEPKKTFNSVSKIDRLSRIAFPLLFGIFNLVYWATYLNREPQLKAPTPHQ
GABAA/α1 receptors, sequence (P28472 26-473 partner): as the sequence (P28472 26-473 partner) above
GABAA/α1 receptors, sequence (P18507 40-475): as the sequence (P18507 40-475) above

As to `C#Cc1ccc2c(c1)C(c1ccccc1Cl)=NCc1nnc(C)n1-2` [XLi-JY-DMH, 8-Acetyleno-5-(2′-chlorophenyl)-1-methyl-4H-s-triazolo-[4,3-a]-1,4-benzodiazepine], in the series with Male Sprague-Dawley rats [1], the “sedative or hypnotic effects (locomotor activity)” value (“sedative or hypnotic effects” for short) is recorded as “less effective in producing sedative or hypnotic effects than diazepam or triazolam” and the Antianxiety/sedation is 10000. In addition, in the series on Male Sprague-Dawley rats [2], the “ataxia (rotorod)” value was “less potent in producing ataxia than diazepam or triazolam” and the Antianxiety/ataxia turned out to be 10000. Besides, in the series with Male CF1 mice, the “PTZ Seizures, effective dose” value was less than 1.0 mg/kg; the “anticonvulsant effects against PTZ-induced seizures” value (shortened to “anticonvulsant effects”) is “anticonvulsant effects against PTZ-induced seizures at doses comparable to those for diazepam and triazolam”. Besides, in the series on Male Sprague-Dawley rats [3], the “CDP-like effects (drug discrimination)” value is listed as “less potent in producing CDP-like effects than diazepam or triazolam” and the Antianxiety/abuse liability is on record as 1000.

`C#Cc1ccc2c(c1)C(c1ccccc1)=NCc1c(C(=O)OCC)ncn1-2` [XHe-ii-053, Ethyl 8-acetylenyl-6-phenyl-4H-benzo[f]imidazo[1,5-a][1,4]diazepine-3-carboxylate]: in the series on Male Sprague-Dawley rats [1], the “sedative or hypnotic effects” value is “less effective in producing sedative or hypnotic effects than diazepam or triazolam” and the Antianxiety/sedation is on record as greater than 300. Besides, in the series on Male Sprague-Dawley rats [2], the “ataxia (rotorod)” value is given as “less potent in producing ataxia than diazepam or triazolam” and the Antianxiety/ataxia was greater than 300. Moreover, in the series with Male CF1 mice, the “PTZ Seizures, effective dose” value is reported as “≦100 mg/kg” and the “anticonvulsant effects” value was “effective against PTZ-induced seizures”. Moreover, in the series with Male Sprague-Dawley rats [3], the “CDP-like effects (drug discrimination)” value was “less potent in producing CDP-like effects than diazepam or triazolam” and the Antianxiety/abuse liability is listed as greater than 300.

For `C#Cc1ccc2c(c1)C(c1ccccc1)=NCC(=O)N2C` [QH-ii-066, 1-Methyl-7-acetyleno-5-phenyl-1,3-dihydro-benzo [e]-1,4-diazepin-2-one], in the series with Male Sprague-Dawley rats [1], the “sedative or hypnotic effects” value was “less effective in producing sedative or hypnotic effects than diazepam or triazolam” and the Antianxiety/sedation is given as 100. In the series on Male Sprague-Dawley rats [2], the “ataxia (rotorod)” value is “less potent in producing ataxia than diazepam or triazolam” and the Antianxiety/ataxia is recorded as greater than 100. Also, in the series with Male CF1 mice, the “PTZ Seizures, effective dose” value is given as less than 30 mg/kg; the “anticonvulsant effects” value was “anticonvulsant effects against PTZ-induced seizures at doses comparable to those for diazepam and triazolam”. Further, the Ki on GABAA/α5 receptors was less than 10 nM. Further, the Ki on GABAA/α2 is less than 50 nM. Further, the Ki at GABAA/α3 is less than 50 nM. On GABAA/α1 receptors, the Ki is greater than 70 nM. Also, in the series with Male Sprague-Dawley rats [3], the “CDP-like effects (drug discrimination)” value is given as “less potent in producing CDP-like effects than diazepam or triazolam” and the Antianxiety/abuse liability was found to be 30.

In the case of `CCOC(=O)c1ncn2c1CN=C(c1ccccc1)c1cc(Br)ccc1-2` [DM-i-070, Ethyl 8-bromo-6-phenyl-4H-benzo[f]imidazo[1,5-a][1,4]diazepine-3-carboxylate], in the series on Male Sprague-Dawley rats [1], the Antianxiety/sedation was greater than 100. The Antianxiety/ataxia in the series on Male Sprague-Dawley rats [2] was greater than 100. Moreover, in the series with Male CF1 mice, the “PTZ Seizures, effective dose” value is less than 100 mg/kg. Further, in the series with Male Sprague-Dawley rats [3], the Antianxiety/abuse liability was 10.

Consider `Cc1nnc2n1-c1ccc(Cl)cc1C(c1ccccc1Cl)=NC2` [Triazolam, reference compound], for which, in the series with Male Sprague-Dawley rats [1], the Antianxiety/sedation is on record as 300. In the series on Male Sprague-Dawley rats [2], the Antianxiety/ataxia worked out at 100. Also, in the series with Male CF1 mice, the “PTZ Seizures, effective dose” value is given as less than 1.0 mg/kg. In addition, the Antianxiety/abuse liability in the series with Male Sprague-Dawley rats [3] was 30.
